From ChEMBL document CHEMBL3399947, “Structure activity relationship of selective GABA uptake inhibitors” (Bioorg Med Chem, 2015)

Experiments:
Assay type in all cases: cell-based
GABA transporter 4 = target: T1, GABA transporter 4 (Mus musculus, UniProt P31650); test: Inhibition of mouse mGAT4 expressed in HEK293 cells assessed as inhibition of [3H]GABA uptake after 3 mins incubation by TopCount microplate scintillation counting analysis; conditions: read-out: IC50
T1 sequence (P31650 whole entry): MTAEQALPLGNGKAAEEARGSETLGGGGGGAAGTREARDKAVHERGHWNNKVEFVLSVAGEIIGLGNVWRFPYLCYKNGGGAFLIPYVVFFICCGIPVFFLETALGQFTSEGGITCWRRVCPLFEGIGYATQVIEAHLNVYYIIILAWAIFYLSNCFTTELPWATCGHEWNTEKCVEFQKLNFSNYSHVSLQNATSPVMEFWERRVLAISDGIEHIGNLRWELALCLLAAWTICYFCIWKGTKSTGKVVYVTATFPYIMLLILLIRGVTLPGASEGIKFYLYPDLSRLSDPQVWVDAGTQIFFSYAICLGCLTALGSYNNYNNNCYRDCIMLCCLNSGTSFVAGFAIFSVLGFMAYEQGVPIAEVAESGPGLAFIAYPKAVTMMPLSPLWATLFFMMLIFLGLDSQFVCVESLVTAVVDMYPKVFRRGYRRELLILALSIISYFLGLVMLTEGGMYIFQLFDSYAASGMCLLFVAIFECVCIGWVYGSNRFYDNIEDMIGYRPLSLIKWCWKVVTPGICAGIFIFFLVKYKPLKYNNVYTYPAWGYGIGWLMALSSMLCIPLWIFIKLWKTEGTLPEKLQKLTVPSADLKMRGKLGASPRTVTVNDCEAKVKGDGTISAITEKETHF

[1] = target: Sodium- and chloride-dependent GABA transporter 1 (Mus musculus, UniProt P31648); test: Inhibition of mouse mGAT1 expressed in HEK293 cells assessed as inhibition of [3H]GABA uptake after 3 mins incubation by TopCount microplate scintillation counting analysis
GABA transporter 2 = target: T2, GABA transporter 2 (Mus musculus, UniProt P31651); test: Inhibition of mouse mGAT2 expressed in HEK293 cells assessed as inhibition of [3H]GABA uptake after 3 mins incubation by TopCount microplate scintillation counting analysis; conditions: read-out: IC50
T2 sequence (P31651 whole entry): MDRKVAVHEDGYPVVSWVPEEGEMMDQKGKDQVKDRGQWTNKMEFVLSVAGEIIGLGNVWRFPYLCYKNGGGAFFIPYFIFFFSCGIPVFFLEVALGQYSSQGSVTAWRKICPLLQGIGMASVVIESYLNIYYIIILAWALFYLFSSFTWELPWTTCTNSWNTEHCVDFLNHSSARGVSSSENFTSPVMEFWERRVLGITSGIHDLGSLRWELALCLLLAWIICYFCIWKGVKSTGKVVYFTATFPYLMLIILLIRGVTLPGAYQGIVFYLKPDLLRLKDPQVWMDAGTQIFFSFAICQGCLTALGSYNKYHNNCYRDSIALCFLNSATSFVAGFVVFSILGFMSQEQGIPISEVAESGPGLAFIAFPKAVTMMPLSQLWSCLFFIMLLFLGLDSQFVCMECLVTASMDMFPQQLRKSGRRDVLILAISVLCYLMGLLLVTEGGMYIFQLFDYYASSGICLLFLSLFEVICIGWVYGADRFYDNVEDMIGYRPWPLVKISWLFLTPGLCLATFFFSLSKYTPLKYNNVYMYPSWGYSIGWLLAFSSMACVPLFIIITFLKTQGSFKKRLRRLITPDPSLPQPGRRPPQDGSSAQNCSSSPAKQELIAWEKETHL

GABA transporter 3 = target: T3, GABA transporter 3 (Mus musculus, UniProt P31649); test: Inhibition of mouse mGAT3 expressed in HEK293 cells assessed as inhibition of [3H]GABA uptake after 3 mins incubation by TopCount microplate scintillation counting analysis; conditions: read-out: IC50
T3 sequence (P31649 whole entry): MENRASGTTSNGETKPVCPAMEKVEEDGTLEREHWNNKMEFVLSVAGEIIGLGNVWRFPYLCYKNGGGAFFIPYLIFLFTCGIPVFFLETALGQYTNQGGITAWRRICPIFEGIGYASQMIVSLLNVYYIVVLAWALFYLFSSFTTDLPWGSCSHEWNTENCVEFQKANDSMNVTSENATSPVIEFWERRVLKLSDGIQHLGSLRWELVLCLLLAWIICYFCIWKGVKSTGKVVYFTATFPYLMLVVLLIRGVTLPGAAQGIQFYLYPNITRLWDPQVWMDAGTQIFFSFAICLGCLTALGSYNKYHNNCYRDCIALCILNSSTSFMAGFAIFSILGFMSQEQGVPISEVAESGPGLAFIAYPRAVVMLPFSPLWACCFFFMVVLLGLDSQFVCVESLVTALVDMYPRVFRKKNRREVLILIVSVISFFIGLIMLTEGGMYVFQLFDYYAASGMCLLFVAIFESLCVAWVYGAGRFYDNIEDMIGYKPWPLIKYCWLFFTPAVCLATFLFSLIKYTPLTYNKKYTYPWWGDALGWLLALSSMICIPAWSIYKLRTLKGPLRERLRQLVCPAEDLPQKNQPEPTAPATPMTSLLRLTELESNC

Row | SMILES | IC50 (GABA transporter 4) | IC50 ([1]; read-out: IC50) | IC50 (GABA transporter 2) | IC50 (GABA transporter 3) | IC50 ([1]; read-out: pIC50 (converted))
1 | CN(CCCP(=O)(O)O)CCON=C(c1ccccc1)c1ccccc1 | > 1 mM | > 1000 µM | > 1000 µM | > 1 mM | 
2 | CN(CCC=C1c2ccccc2CCc2ccccc21)CCCP(=O)(O)O | > 1 mM | > 1000 µM | > 1000 µM | > 1 mM | 
3 | CN(CCCS(=O)(=O)O)CCON=C(c1ccccc1)c1ccccc1 | > 1 mM | 828 µM | > 1000 µM | > 1 mM | 
4 | Cc1ccsc1C(=CCCn1cc(CNCCC(=O)O)nn1)c1sccc1C | > 2 mM | > 2000 µM | > 2000 µM | > 2 mM | 
5 | O=C(O)CCNCc1cn(CCOC(c2ccc(C(F)(F)F)cc2)c2ccc(C(F)(F)F)cc2)nn1 | > 1 mM | > 1000 µM | > 1000 µM | > 1 mM | 
6 | Cc1ccsc1C(=CCCN1CCNCC(C(=O)O)C1)c1sccc1C (centres undefined) | 1.74 mM | 43.8 µM | 370 µM | 0.844 mM | 
7 | CCN1CCN(CCC=C(c2sccc2C)c2sccc2C)CC(C(=O)O)C1 (centres undefined) | > 1 mM | 483 µM | 318 µM | 1.7 mM | 
8 | CCC(C)N1CCN(CCC=C(c2sccc2C)c2sccc2C)CC(C(=O)O)C1 (centres undefined) | > 1 mM | > 1000 µM | 160 µM | > 1 mM | 
9 | CCCCN1CCN(CCC=C(c2sccc2C)c2sccc2C)CC(C(=O)O)C1 (centres undefined) | 0.681 mM | 185 µM | 80.6 µM | 0.65 mM | 501 µM
10 | C=CCN1CCN(CCC=C(c2sccc2C)c2sccc2C)CC(C(=O)O)C1 (centres undefined) | 0.563 mM | 549 µM | 160 µM | 1.1 mM | 
11 | Cc1ccsc1C(=CCCN1CCN(Cc2ccccc2)CC(C(=O)O)C1)c1sccc1C (centres undefined) | > 1 mM | > 1000 µM | 309 µM | > 1 mM | 
12 | Cc1ccsc1C(=CCCN1CCN(CCO)CC(C(=O)O)C1)c1sccc1C (centres undefined) | > 1 mM | > 1000 µM | > 1000 µM | > 1 mM | 
13 | Cc1ccsc1C(=CCCN1CCN(C(=N)N)CC(C(=O)O)C1)c1sccc1C (centres undefined) | > 1 mM | > 1000 µM | > 1000 µM | > 1 mM | 
14 | O=C(O)C1CNCCN(CCON=C(c2ccccc2)c2ccccc2)C1 (centres undefined) | > 1 mM | 667 µM | > 1000 µM | > 1 mM | 5250 µM
15 | CCN1CCN(CCON=C(c2ccccc2)c2ccccc2)CC(C(=O)O)C1 (centres undefined) | > 1 mM | > 1000 µM | > 1000 µM | > 1 mM | 
16 | CCCCN1CCN(CCON=C(c2ccccc2)c2ccccc2)CC(C(=O)O)C1 (centres undefined) | > 1 mM | > 1000 µM | > 1000 µM | > 1 mM | 
17 | Cc1ccsc1C(=CCCN1CCN(CCON=C(c2ccccc2)c2ccccc2)CC(C(=O)O)C1)c1sccc1C (centres undefined) | > 1 mM | > 1000 µM | > 1000 µM | > 1 mM | 
18 | O=C(O)C1CN(CCO)CCN(CCON=C(c2ccccc2)c2ccccc2)C1 (centres undefined) | > 1 mM | > 1000 µM | > 1000 µM | > 1 mM | 
19 | COc1ccc(C(OCCN2CCC[C@H](C(=O)O)C2)(c2ccc(OC)cc2)c2ccc(OC)cc2)cc1 |  |  | 22 µM |  | 
20 | CN(CCON=C(c1ccccc1)c1ccccc1)[C@@H]1CCCC[C@H]1C(=O)O (racemic) | > 2 mM |  | 1100 µM | > 2 mM | 
21 | Cc1ccsc1C(=CCCN1CCC[C@@H](C(=O)O)C1)c1sccc1C [TIAGABINE] |  |  |  | > 0.3 mM | 
